Results as given in patent US8722023B2, “Depigmenting or brigthening cosmetic composition comprising at least one oxazolin as an active ingredient” (Laboratoires Expanscience, priority 2005, dated 2014).

Columns and labels:
[1] = test system: Melanocyte/keratinocyte co-cultures (NHEM-NHEK; M/K); assay: Viability (MTT test) of M/K co-cultures; format: cell-based, human; conditions: for Viability percentage (MTT test): 240 hours
Description: (§1) Melanocyte/keratinocyte co-cultures (NHEM-NHEK; M/K) are incubated for 240 hours, in the absence or presence of OX100. The quantity of melanin present in the cells after incubation is measured by spectrophotometry. 1) M/K co-cultures are inoculated in medium free of PMA (phorbol myristate acetate) and are brought to 60-80% confluence for the test. 2) Three identical culture series are prepared in order to measure: • cytotoxicity by a MTT (tetrazolium salt) test and by morphological observation of the cells, • quantity of melanin, • quantity of total proteins (in order to determine the ratio of melanin to total protein). 3) Treatment conditions are as follows: • OX100 at three concentrations: 2×10^−6, 10^−5, 2×10^−5 M. • Kojic acid (reference depigmenting molecule). • IBMX (3-isobutyl-1-methylxanthine, pro-pigmenting reference molecule). Each treatment condition is carried out in triplicate. The co-cultures are incubated for 240 hours in the presence or absence of the compounds above. Irradiation by ultraviolet rays (25 mJ/cm^2 of UVB+300 mJ/cm^2 of UVA) is carried out four times per day for consecutive four days.

[2] = test system: normal human melanocytes in co-culture (NHEM-NHEK; M/K); assay: Production of melanin in M/K co-cultures, irradiated or not; format: cell-based; conditions: for quantity of melanin compared to the control (control = 100) / variation of the quantity of melanin compared to the control (value in brackets): 240 hours
Description: as §1, with “The effect of OX100 was studied on the production of melanin by normal human melanocytes in co-culture (NHEM-NHEK; M/K) irradiated or not. Melanocyte/keratinocyte” for “Melanocyte/keratinocyte”, “days. At the end of the treatment, the cellular monolayers are washed. After cell lysis, the melanin crystals are extracted and solubilized. The melanin is quantified by measurement of the OD (optical density) at 450 nm and by comparison with a range of melanin standards.” for “days.”

[3] = test system: skin of the hands (spot-free area and pre-identified pigmentation spot); assay: Colorimetric measurements (Chromameter) on the hands, treated hand vs. control hand; format: in vivo, human (adult female volunteers); conditions: for Individual typological angle (ITA), treated hand / Lightness variable L*, treated hand: mean ± SEM
Source text: Among these volunteers, 14% were North-African in origin and 86% Mediterranean, including 76% of phototype IV and 10% of phototype V. All of these volunteers had lentigo pigmentation spots on the hands and most had them on the face. COLORIMETRIC MEASUREMENTS (Chromameter™): Variance homogeneity and distribution normality were verified in all cases. Measurements are taken on the hands, in an area without pigmentation spots. The results correspond to the means and deviations with respect to the mean-SEM. The time and product effects results with values less than 0.05 are statistically significant. The result corresponding to both the time and product effects gives the value of the probability of the differences Δ (T=6 weeks minus T0) by the Student's t-test in a paired series (bilateral significance test, p<0.05). Measurements are carried out on the hands in an area with pigmentation spots. The results correspond to the means and deviations with respect to the mean-SEM.

[4] = Overall assessment of the product's acceptability and effectiveness by the volunteers; format: in vivo, human (adult female volunteers); parameters: unit not given here; conditions: panel of 21 volunteers
Source text: Overall Assessment of the Product's Acceptability and Effectiveness by the Volunteers

[5] = test system: lentigo pigmentation spots, skin of hands and face; assay: Clinical evaluation of hands and face after six weeks of application; format: in vivo, human (adult female volunteers)
Source text: Among these volunteers, 14% were North-African in origin and 86% Mediterranean, including 76% of phototype IV and 10% of phototype V. All of these volunteers had lentigo pigmentation spots on the hands and most had them on the face. The results of the statistically significant variation, after six weeks of application, of some of the criteria evaluated are given in table 6 below: The percentages correspond to variations with respect to the initial evaluations, the p value corresponds to probability p with respect to the initial evaluations (Wilcoxon test, bilateral significance test, p<0.05). For measurements of pigmentation spot intensity, the intensity of the spot is identified beforehand. The results of the statistically significant variation, after six weeks of application, of some of the criteria evaluated are given in table 7 below: The percentages correspond to variations with respect to the initial evaluations, the p value corresponds to probability p with respect to the initial evaluations (Wilcoxon test, bilateral significance test, p<0.05). For measurements of pigmentation spot intensity, the intensity of the spot is identified beforehand.

[6] = Assessment of cutaneous acceptability by the volunteers; format: in vivo, human (adult female volunteers); parameters: volunteers reporting no cutaneous manifestations: unit not given here
Source text: Assessment of Cutaneous Acceptability by the Volunteers

[7] = area with spots (pre-identified pigmentation spot), T = 0 (before treatment)
[8] = area with spots (pre-identified pigmentation spot), T = 6 weeks
[9] = spot-free area of the hands, T = 0 (before treatment)
[10] = spot-free area of the hands, T = 6 weeks

CC(C)Cn1c(=O)n(C)c(=O)c2[nH]cnc21 [IBMX, 3-isobutyl-1-methylxanthine, reference compound]
Viability percentage (MTT test) ([1]; 200 μM, With UV): 111% | Viability percentage (MTT test) ([1]; 200 μM, Without UV): 118% | quantity of melanin compared to the control (control = 100) ([2]; 200 μM, With UV): 114% | quantity of melanin compared to the control (control = 100) ([2]; 200 μM, Without UV): 118% | variation of the quantity of melanin compared to the control (value in brackets) ([2]; With UV): +14% | variation of the quantity of melanin compared to the control (value in brackets) ([2]; Without UV): +15%

CCCCCCCCCCCC1=NC(C)(C)CO1 [OX100, 2-undecyl-4,4-dimethyl-1,3-oxazoline]
Viability percentage (MTT test) ([1]; 2 × 10^−5 M, With UV): 105% | Viability percentage (MTT test) ([1]; 2 × 10^−5 M, Without UV): 115% | Viability percentage (MTT test) ([1]; 2 × 10^−6 M, With UV): 97% | Viability percentage (MTT test) ([1]; 2 × 10^−6 M, Without UV): 102% | Viability percentage (MTT test) ([1]; 10^−5 M, With UV): 99% | Viability percentage (MTT test) ([1]; 10^−5 M, Without UV): 108% | toxicity for the M/K co-cultures, in words ([1]; at the concentrations tested): not toxic | quantity of melanin compared to the control (control = 100) ([2]; 2 × 10^−5 M, With UV): 104% | variation of the quantity of melanin compared to the control (value in brackets) ([2]; 2 × 10^−5 M, With UV): +4% | quantity of melanin compared to the control (control = 100) ([2]; 2 × 10^−5 M, Without UV): 89% | variation of the quantity of melanin compared to the control (value in brackets) ([2]; 2 × 10^−5 M, Without UV): −12% | quantity of melanin compared to the control (control = 100) ([2]; 2 × 10^−6 M, With UV): 100% | variation of the quantity of melanin compared to the control (value in brackets) ([2]; 2 × 10^−6 M, With UV): 0% | quantity of melanin compared to the control (control = 100) ([2]; 2 × 10^−6 M, Without UV): 102% | variation of the quantity of melanin compared to the control (value in brackets) ([2]; 2 × 10^−6 M, Without UV): −1% | quantity of melanin compared to the control (control = 100) ([2]; 10^−5 M, With UV): 99% | variation of the quantity of melanin compared to the control (value in brackets) ([2]; 10^−5 M, With UV): −1% | quantity of melanin compared to the control (control = 100) ([2]; 10^−5 M, Without UV): 104% | variation of the quantity of melanin compared to the control (value in brackets) ([2]; 10^−5 M, Without UV): +4% | effect on melanin in the irradiated study model, in words ([2]; irradiated co-cultures (UVB + UVA)): neutralizes the effect of ultraviolet rays | inhibition of the synthesis of melanin ([2]; non-irradiated co-cultures, 2.10^−5 M, p<0.01): roughly 12% | Individual typological angle (ITA), treated hand [3, 7]: 5.0 ± 4.5 | Lightness variable L*, treated hand [3, 7]: 51.2 ± 1.1 | Individual typological angle (ITA), treated hand [3, 8]: 11.0 ± 5.2 | Lightness variable L*, treated hand [3, 8]: 52.4 ± 1.2 | increase in chromaticity coordinate L* ([3]; area with spots, six weeks of applications, compared to initial values and control hand, p=0.048): +2% | Individual typological angle (ITA), treated hand [3, 9]: 38.5 ± 2.4 | Lightness variable L*, treated hand [3, 9]: 58.4 ± 0.7 | Individual typological angle (ITA), treated hand [3, 10]: 44.1 ± 2.4 | Lightness variable L*, treated hand [3, 10]: 59.2 ± 0.7 | increase in ITA ([3]; spot-free area, six weeks of applications, compared to initial values and control hand, p=0.008): +13% | increase in chromaticity coordinate L* ([3]; spot-free area, six weeks of applications, compared to initial values and control hand, p=0.017): +2% | volunteers reporting somewhat good to good effectiveness as a depigmenting/lightening product [4]: Thirty-eight | COLOR LIGHTNESS, variation with respect to initial evaluation ([5]; face, p = 0.0001 (Wilcoxon)): +22% (p = 0.0001) | INTENSITY OF THE PIGMENTATION SPOT, variation with respect to initial evaluation ([5]; face, p = 0.0196 (Wilcoxon)): −8% (p = 0.0196) | COLOR UNIFORMITY, variation with respect to initial evaluation ([5]; face, p = 0.0455 (Wilcoxon)): +4% (p = 0.0455) | SKIN LIGHTNESS, variation with respect to initial evaluation ([5]; hands, p = 0.0002 (Wilcoxon)): +16% (p = 0.0002) | INTENSITY OF THE PIGMENTATION SPOT, variation with respect to initial evaluation ([5]; hands, p = 0.0143 (Wilcoxon)): −5% (p = 0.0143) | SKIN UNIFORMITY, variation with respect to initial evaluation ([5]; hands, p = 0.0209 (Wilcoxon)): +10% (p = 0.0209) | dermatological tolerance, conclusion in words ([6]; conclusion of Example 6): dermatologically well-tolerated | volunteers reporting no cutaneous manifestations ([6]; panel of 21 volunteers): Ninety-five | volunteers reporting no ocular manifestations ([6]; panel of 21 volunteers): 100%

O=c1cc(CO)occ1O [Kojic acid, reference compound]
Viability percentage (MTT test) ([1]; 0.0156 mg/ml, With UV): 99% | Viability percentage (MTT test) ([1]; 0.0156 mg/ml, Without UV): 102% | quantity of melanin compared to the control (control = 100) ([2]; 15.6 μg/ml, With UV): 83% | variation of the quantity of melanin compared to the control (value in brackets) ([2]; 15.6 μg/ml, With UV): −20% | quantity of melanin compared to the control (control = 100) ([2]; 15.6 μg/ml, Without UV): 74% | variation of the quantity of melanin compared to the control (value in brackets) ([2]; 15.6 μg/ml, Without UV): −35%
